Test results: PMC10418939, “Synthesis, ^123I-Radiolabeling Optimization, and Initial Preclinical Evaluation of Novel Urea-Based PSMA Inhibitors with a Tributylstannyl Prosthetic Group in Their Structures” (International Journal of Molecular Sciences, 2023)
Where two headings read alike, the source gives them in different places.

Tests used:
[1] = NCr nude mice bearing LNCaP xenografts, cited from earlier work; for accumulation in the liver: 4 h after injection; for accumulation in the kidney: after 4 h
Text: The uptake of [^123I]PSMA-p-IB in normal organs, except in the salivary gland, gastrointestinal tract, and body, were low. […] This value was correlated with PSMA-p-IB that had been ^123I-labeled, which is non-residualizi ...

[2] = In vivo biodistribution in normal mice; design: activity in the whole gastrointestinal tract (with contents): unit not given here; conditions: female CD1 mice, i.v. tail vein, 80 pmol, 4 h p.i.
Protocol: The mice were sacrificed at 4 h post-injection (p.i.) by cervical dislocation. A side-by-side comparison of the biodistribution of [^123I]PSMA-p-IB and [^177Lu]Lu-PSMA-617 in normal mice is shown in Figure 11. Biodistribution of [^123I]PSMA-p-IB at 4 h p.i. in CD1 mice reflects a low level of accumulation in almost all normal organs, except in the salivary gland, gastrointestinal tract, and the rest of the body. There were significant differences between the uptake of [^123I]PSMA-p-IB and [^177Lu]Lu-PSMA-617 in several normal organs. Low accumulation of both ligands was detected in muscle and bone. However, it was determined that the uptake of [^177Lu]Lu-PSMA-617 in muscle (0.1 ± 0.1 %ID/g) was noticeably lower than that of [^123I]PSMA-p-IB (0.2 ± 0.0 %ID/g). […] The activity of [^123I]PSMA-p-IB in blood was 1.3 ± 0.5 %ID/g. […] The activity in the blood for [^123I]PSMA-p-IB experiment was associated with […] labeled with ^123I, which is non-residualizing and is thought to result in the rapid excretion of radiometabolites. Additionally, this ligand lipophilicity might lead it to bind to proteins in the blood. […] This value was clearly higher than the [^177Lu]Lu-PSMA-617 accumulation in the same organ of 0.1 ± 0.0 %ID/g. This [^123I]PSMA-p-IB accumulation could be due to radioiodine catabolites. The activity in the whole gastrointestinal tract (with contents) and small intestine for [^123I]PSMA-p-IB was 12.4 ± 0.8 and 1.1 ± 0.2 %ID/g, respectively. Meanwhile, the activity of [^177Lu]Lu-PSMA-617 in the whole gastrointestinal tract (with contents) and small intestine was 1.2 ± 0.8 and 0.2 ± 0.1 %ID/g, respectively.
Remarkable results were observed whereby the accumulation of [^123I]PSMA-p-IB (0.9 ± 0.1 %ID/g) in the liver was substantially lower than that of [^177Lu]Lu-PSMA-617 (2.3 ± 0.2 %ID/g).
The biodistribution of [^123I]PSMA-p-IB and [^177Lu]Lu-PSMA-617 in normal mice was evaluated in 8 female CD1 mice (2 groups) of 6 weeks of age with an average weight of 31.8 ± 3.6 g. The mice were housed and cared for under standard conditions prior to use. Four mice were each injected intravenously through the tail vein with 40 kBq (80 pmol) of [^123I]PSMA-p-IB in 100 μL PBS with 10% ethanol. The remaining 4 mice were intravenously (i.v.) injected with 130 kBq (80 pmol) of [^177Lu]Lu-PSMA-617 in 100 μL PBS with 1% BSA per mouse. The mice were sacrificed 4 h after injection. Cervical dislocation was employed to sacrifice the anesthetized mice. The blood, tissues, and organs (salivary gland, lung, liver, spleen, small intestine, kidney, muscle, and bone) were excised, collected, and weighed. The ^123I and ^177Lu activities were simultaneously measured using a gamma-counter. The activity uptake was expressed as the percentage of injected activity per gram of organ (%ID/g).
Figure 11 Biodistribution of [^123I]PSMA-p-IB and […] in CD1 mice 4 h post-injection (p.i.). Data for the gastrointestinal tract (including the contents) and the body are presented as the %ID per whole sample. ns indicates p > 0.05, * indicates p ≤ 0.05, ** indicates p ≤ 0.01, *** indicates p ≤ 0.001 and **** indicates p ≤ 0.0001. The comparison study was performed by unpaired 2-tailed t-tests (95% confidence interval).

Row | Molecule | accumulation in the liver [1] [%ID/g] | accumulation in the kidney [1] [%ID/g] | accumulation in bone ([2]; n = 4, gamma counter) [%ID/g] | accumulation in salivary glands ([2]; n = 4, gamma counter) [%ID/g] | accumulation in the liver ([2]; n = 4, gamma counter) [%ID/g] | activity in blood ([2]; n = 4, gamma counter) [%ID/g] | activity in small intestine ([2]; n = 4, gamma counter) [%ID/g] | uptake in muscle ([2]; n = 4, gamma counter) [%ID/g] | uptake in the kidney ([2]; n = 4, gamma counter) [%ID/g] | activity in the whole gastrointestinal tract (with contents) ([2]; n = 4, Figure 11 legend: %ID per whole sample)
1 | O=C(O)CC[C@H](NC(=O)N[C@@H](CCCCNCc1ccc([123I])cc1)C(=O)O)C(=O)O [[^123I]MIP-1072] | 2.17 ± 0.67 | 35.7 ± 18.7 |  |  |  |  |  |  |  | 
2 | O=C(O)CC[C@H](NC(=O)N[C@@H](CCCCNC(=O)Nc1ccc([123I])cc1)C(=O)O)C(=O)O [[^123I]MIP-1095] | 7.82 ± 1.01 | 77.5 ± 16.5 |  |  |  |  |  |  |  | 
3 | [^177Lu]Lu-PSMA-617 |  |  | 0.6 ± 0.1 | 0.1 ± 0.0 | 2.3 ± 0.2 | 0.1 ± 0.0 | 0.2 ± 0.1 | 0.1 ± 0.1 | 6.1 ± 3.7 | 1.2 ± 0.8
